Patent US20260209297A1, “ANTIMICROBIAL PEPTIDES AND MODIFICATIONS THEREOF” (priority 2022, published 2026)

System: Fusarium graminearum PH-1
Type: cell-based
Conditions: for F. graminearum PH-1 MIC Day 1: Fusarium graminearum PH-1, 96-well, resazurin viability

| Substance | F. graminearum PH-1 MIC Day 1 [µM] | MIC against F. graminearum (F. graminearum PH-1, Example 7) [µM] |
| --- | --- | --- |
| PD84.1.1: SEQ ID NO: 546 with N-terminal alanine; Striga asiatica wild-type defensin, expressed in Pichia pastoris (KICEYKSERFWGVCLSDIKCADVCKDESFESGDCQGLRRRCMCYNHC; N-terminal alanine added; listed as Striga asiatica) | >12 | – |
| PD123.1.1: SEQ ID NO: 719 with N-terminal alanine; Striga asiatica wild-type defensin, expressed in Pichia pastoris (RKCESKSQQFKGLCFIKANCAAVCRTEGFHSGHCRGFRRRCYCTKHC; N-terminal alanine added; listed as Striga asiatica) | 6 | – |
| PD125.1.1: SEQ ID NO: 728 with N-terminal alanine; wild-type defensin-like protein, expressed in Pichia pastoris (VICPLESKRSKTWSGVCAQSKNCDKQCKTWERAKHGACHATYGKVLGVKACMHAGNK; N-terminal alanine added; listed as Prunus armeniaca) | 8 | – |
| PD121.1.1: SEQ ID NO: 711 with N-terminal alanine; Setaria italica wild-type defensin, expressed in Pichia pastoris (RHCLSQSHHFKGLCLSSSNCANVCRVERFPDGECQTTAGTRKCFCKRIC; N-terminal alanine added; listed as Setaria italica) | 1.5 | – |
| PD94.1.1: SEQ ID NO: 593 with N-terminal alanine; Solanum lycopersicum wild-type defensin, expressed in Pichia pastoris (KLCQYHSETFHGVCVTGNNCNRHCQRENFEGGRCHGIRHYRCVCYRTC; N-terminal alanine added; listed as Solanum lycopersicum) | >12 | – |
| PD92.1.1: SEQ ID NO: 583 with N-terminal alanine; Trifolium pratense wild-type defensin, expressed in Pichia pastoris (RKCESKRRWIYGNCLSDEKCASDCLVKGFLFGKCRGYDNRCYCKKPRC; N-terminal alanine added; Trifolium pratense) | 3 | – |
| PD86.1.1: SEQ ID NO: 555 with N-terminal alanine; Eryanthe guttata wild-type defensin, expressed in Pichia pastoris (SLCETPSRYFNGICFSRRNCGAICEKEGFSSGRCKAFKCVCGKDC; N-terminal alanine added; listed as Eryanthe guttata) | 6 | – |
| PD88.1.1: SEQ ID NO: 565 with N-terminal alanine; Fraxinus excelsior wild-type defensin, expressed in Pichia pastoris (KHCAKLSKGWHGFCAPHKCSRYCIHHEGAYDGACLKHHHSKHIGCYCYYRHC; N-terminal alanine added; Fraxinus excelsior) | >12 | – |
| PD96.1.1: SEQ ID NO: 603 with N-terminal alanine; Thlaspi arvense wild-type defensin, expressed in Pichia pastoris (RMCESKSHEFKGFCTKWRICRDVCITEGFTDGGCHGVLRHCVCKKPCLLSN; N-terminal alanine added; Thlaspi arvense) | 0.75 | 0.75 |
| PD83.1.1: SEQ ID NO: 542 with N-terminal alanine; Eucalyptus grandis wild-type defensin, expressed in Pichia pastoris (RMCESQSHKFHGLCMSDRTCVVVCKEEDFDDGKCRGFRHRCFCRKPC; N-terminal alanine added; listed as Eucalyptus grandis) | >12 | – |
